Assay results reported in patent publication US20110071178A1, “Methods and Compounds for Modulating Cannabinoid Activity” (Northeastern University, priority 2007, published 2011).

Assays:
MGL = biological target: T1, MGL (Rattus norvegicus, UniProt Q8R431); settings: 100 µM
T1 sequence (Q8R431 1-303): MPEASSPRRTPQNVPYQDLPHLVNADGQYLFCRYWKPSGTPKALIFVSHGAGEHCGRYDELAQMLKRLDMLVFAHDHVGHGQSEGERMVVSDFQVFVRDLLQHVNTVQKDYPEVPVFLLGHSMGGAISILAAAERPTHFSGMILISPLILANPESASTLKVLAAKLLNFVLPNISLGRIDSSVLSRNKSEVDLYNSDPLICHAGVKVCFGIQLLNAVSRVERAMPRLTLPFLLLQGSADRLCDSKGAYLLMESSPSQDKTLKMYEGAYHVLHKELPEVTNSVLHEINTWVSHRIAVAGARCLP
Description: The percentage of inhibition describes the percentage by which the inhibitor reduces the velocity/rate of 2-AG hydrolysis by MGL. […] The Ki value is the affinity constant and describes the affinity of the inhibitor for the MGL.
These rat brains are homogenized in 5 volumes of ice-cold buffer (0.32 M sucrose, 10 mM Tris base, 5 mM EDTA, pH 7.4) then centrifuged at 17400 g for 30 min. The supernatant was further centrifuged at 124,000 g for 90 min. The supernatant from the last certifugation step (cytosol fraction) is resuspended in TME buffer (25 mM Tris base, 5 mM MgCl2, 1 mM EDTA, pH 7.4) for the MGL preparation. Aliquots (1 ml) from the preparation are flash frozen in liquid nitrogen and stored at −80° C. until used. Protein concentration of the enzyme suspension is determined using the BioRad protein assay kit. […]
Again the reaction mixture is treated in the same manner as described above and the concentrations of 2-AG and AA are calculated using external standards. Percent inhibition is calculated using the following equation: […]
where (AA20−AA0)c is the amount of arachidonic acid formed over 20 min from 2-AG with the inhibitor present and (AA20−AA0)s is the amount of arachidonic acid formed over 20 min from 2-AG when the inhibitor is not present. […] The reaction mixtures are treated as described above and the amount of AA formed was calculated. […]

O=S(=O)(Cl)CCCCCCCc1ccc(OCc2ccccc2)cc1 [Compound 12.1, 7-(4-Benzyloxy-phenyl)-heptanesulfonyl chloride]
melting point: 33 to 35 °C

O=S(=O)(Cl)CCCCCc1ccc(OCc2ccccc2)cc1 [Compound 12.4, 5-(4-Benzyloxy-phenyl)-pentanesulfonyl chloride]
melting point: 58 to 60 °C

O=S(=O)(F)CCCCCc1ccc(O)cc1 [Compound 14.4, 5-(4-Hydroxy-phenyl)-pentanesulfonyl fluoride]
melting point: 32 to 35 °C

CCOC(=O)NCc1ccc(Br)cc1 [Compound 57.1]
inhibition (MGL): 44%
